pIC50: −log10 of the molar value.
Key:
human URAT1 = biological target: T1, human URAT1 (Homo sapiens, UniProt Q96S37); test: Test for inhibition of uric acid transport using human URAT1-expressing cells; assay type: cell-based; settings: HEK 293 cells expressing human URAT1; 14C-labeled uric acid 25 μM; uptake 37° C. for 5 min; read-out: Inhibitory activity (IC50, concentration at which the uric acid transport rate is inhibited by 50%)
T1 construct: Full-length cDNA of human URAT1 (hURAT1); host or cells: HEK 293 cells, stably transfected and selected by Geneticin resistance
T1 sequence (Q96S37 1-553): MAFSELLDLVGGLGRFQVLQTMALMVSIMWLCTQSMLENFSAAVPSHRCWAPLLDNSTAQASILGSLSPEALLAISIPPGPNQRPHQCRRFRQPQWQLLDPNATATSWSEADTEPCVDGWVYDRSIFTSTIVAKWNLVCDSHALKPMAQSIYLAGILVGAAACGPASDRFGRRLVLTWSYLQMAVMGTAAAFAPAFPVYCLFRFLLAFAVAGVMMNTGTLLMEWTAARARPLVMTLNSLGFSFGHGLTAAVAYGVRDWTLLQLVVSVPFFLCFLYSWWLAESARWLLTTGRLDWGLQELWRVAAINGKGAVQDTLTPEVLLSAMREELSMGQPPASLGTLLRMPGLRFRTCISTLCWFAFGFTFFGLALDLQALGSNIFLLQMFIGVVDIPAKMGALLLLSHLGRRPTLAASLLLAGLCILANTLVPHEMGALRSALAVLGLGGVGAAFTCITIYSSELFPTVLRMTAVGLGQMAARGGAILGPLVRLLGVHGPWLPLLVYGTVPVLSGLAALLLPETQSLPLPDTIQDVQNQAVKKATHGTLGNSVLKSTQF
Experimental: Test for Inhibition of Uric Acid Transport Using Human URAT1-Expressing Cells
A test compound was dissolved in DMSO (produced by Sigma) to a concentration of 20 mM and was subsequently used by adjusting the concentration to a desired value for use.
Full-length cDNA of human URAT1 (hURAT1) (produced by OriGene Technologies, Inc., NCBI Reference Sequence: NM-144585) was subcloned into an expression vector, pCMV6-Kan/Neo (produced by OriGene Technologies, Inc.), and human URAT1 genes were transfected into human embryonic kidney-derived cells (HEK 293 cells) by a liposome method using Lipofectamine 2000 (produced by Invitrogen Corporation), whereupon HEK 293 cells expressing human URAT1 genes were selected on the basis of Geneticin resistance. Functional expression of human URAT1 genes was confirmed by using transport of ^14C-labeled uric acid into the cells as an index.
The HEK 293 cells expressing human URAT1 were seeded in a 24-well cell culture dish to a density of 3×10^5 cells/mL/well and were cultured in Dulbecco's modified Eagle's medium (D-MEM medium) containing 10% fetal bovine serum at 37° C. for 2 days. Thereafter, the following test for inhibition of uric acid transport was performed.
After the medium was removed by aspiration from each well, the cells were replaced with a solution obtained by substituting NaCl in Hanks' Balanced Salt Solution (HBSS) with Na gluconate (hereinafter, HBSS/Na-gluconate), and the cells were preincubated at 37° C. for about 10 minutes. After removing the HBSS/Na-gluconate by aspiration, a ^14C-uric acid solution containing various concentrations of the Example compound listed in Table 4 and a radioactive ligand (^14C-labeled uric acid; final concentration 25 μM) was added, and an uptake reaction was carried out by incubating at 37° C. for 5 min. After the reaction, the ^14C-labeled uric acid was removed by aspiration and the cells were washed three times with ice-cooled HBSS. The HEK 293 cells expressing human URAT1 were lysed in a 0.2 mol/L aqueous NaOH solution (hereafter, the cell sample) and sampled from the well. The cell sample and a liquid scintillation cocktail, ULTIMA GOLD (produced by PerkinElmer, Inc.) were mixed, and the radioactivity was measured by a liquid scintillation counter (manufactured by Beckman Coulter, Inc.).
The uric acid transport rate of the Example compound at each concentration (% of control uptake) was calculated relative to the radioactivity (radioactivity in human URAT1 expressing HEK 293 cells without addition of the Example compound (DMSO addition)) showing URAT1-specific uric acid transport as 100%, and the concentration (IC50) of the Example compound at which the uric acid transport rate is inhibited by 50% was determined. In addition, the symbols (*, **, and ***) in the table represent the following inhibitory activity values: • IC50≦0.2 μM: *** • 0.2 μM<IC50≦2 μM: ** • 2 μM<IC50≦20 μM: *

cebus apella = test: Testing drug efficacy in Cebus apella (uric acid excretion rate); assay type: in vivo; settings: 3 mg/kg to 30 mg/kg in 0.5% methylcellulose, from the nasal cavity to the stomach
Experimental: Testing Drug Efficacy in Cebus Apella A test compound (3 mg/kg to 30 mg/kg) dispersed in a 0.5% methylcellulose solution was administered to cebus apella from the nasal cavity to the stomach using a disposable catheter and a syringe barrel. Blood samples were taken before administration and 30 minutes, 1 hour, 2 hours, 4 hours, 8 hours, 12 hours, and 24 hours after administration; and urine samples were collected for the time intervals of from immediately after to 4 hours after administration, from 4 hours to 8 hours after administration, from 8 hours to 16 hours after administration, and from 16 hours to 24 hours after administration. Concentrations of uric acid and creatinine in the blood and urine samples collected were measured by an automatic analyzer (JEOL Ltd.). Uric acid and creatinine were measured respectively using L-type Wako UA•F (Wako Pure Chemicals Industries, Ltd.) and L-type Creatinine F (Wako Pure Chemicals Industries, Ltd.). Uric acid clearance was calculated from the uric acid concentrations in blood and urine and, similarly, creatinine clearance was calculated from the creatinine concentrations. Based on these values, the uric acid excretion rate was determined according to the following equation: Uric acid excretion rate (%)=(uric acid clearance/creatinine clearance)×100

Structure (SMILES) | pIC50 (human URAT1) | activity to promote uric acid excretion (cebus apella)
CCc1cncc(-c2nc(C)c(C(=O)O)n2Cc2cc(Cl)ccc2Cl)n1 [Compound A3, 1-(2,5-dichlorobenzyl)-2-(6-ethylpyrazin-2-yl)-4-methyl-1H-imidazole-5-carboxylic acid] | ≥ 6.70 | 
Cc1cncc(-c2nc(C)c(C(=O)O)n2Cc2cc(Cl)sc2Cl)n1 [Compound A12, 1-((2,5-dichlorothiophene-3-yl)methyl)-4-methyl-2-(6-methylpyrazin-2-yl)-1H-imidazole-5-carboxylic acid] | ≥ 6.70 | 
Cc1nc(-c2cncc(-c3ccccc3)n2)n(Cc2cc(Cl)ccc2Cl)c1C(=O)O [Compound A4, 1-(2,5-dichlorobenzyl)-4-methyl-2-(6-phenylpyrazin-2-yl)-1H-imidazole-5-carboxylic acid] | ≥ 6.70 | 
Cc1nc(-c2cnccn2)n(Cc2cc(Cl)sc2Cl)c1C(=O)O [Compound A11, 1-((2,5-dichlorothiophene-3-yl)methyl)-4-methyl-2-(pyrazin-2-yl)-1H-imidazole-5-carboxylic acid] | ≥ 6.70 | excellent activity
Cc1nc(-c2cncc(C(C)C)n2)n(Cc2cc(Cl)ccc2Cl)c1C(=O)O [Compound A9, 1-(2,5-dichlorobenzyl)-2-(6-isopropylpyrazin-2-yl)-4-methyl-1H-imidazole-5-carboxylic acid] | ≥ 6.70 | 
Cc1nc(-c2cncc(C#N)n2)n(Cc2cc(Cl)ccc2Cl)c1C(=O)O [Compound A8, 2-(6-cyanopyrazin-2-yl)-1-(2,5-dichlorobenzyl)-4-methyl-1H-imidazole-5-carboxylic acid] | ≥ 6.70 | 
O=C(O)c1ccc(-c2cnccn2)n1Cc1cc(Cl)ccc1Cl [Compound A15, 1-(2,5-dichlorobenzyl)-2-(pyrazin-2-yl)-1H-pyrrole-5-carboxylic acid] | ≥ 6.70 | 
Cc1nc(-c2cnccn2)n(Cc2cc(Cl)ccc2Cl)c1C(=O)O [Compound A1, 1-(2,5-dichlorobenzyl)-4-methyl-2-(pyrazin-2-yl)-1H-imidazole-5-carboxylic acid] | ≥ 6.70 | 
Cc1nc(-c2cncc(C3CC3)n2)n(Cc2cc(Cl)ccc2Cl)c1C(=O)O [Compound A10, 2-(6-cyclopropylpyrazin-2-yl)-1-(2,5-dichlorobenzyl)-4-methyl-1H-imidazole-5-carboxylic acid] | ≥ 6.70 | 

Further lines, with some results ahead:

pIC50 (human URAT1) | Structure (SMILES) | activity to promote uric acid excretion (cebus apella)
5.70 to 6.70 | COc1cccc(F)c1Oc1cncc(-c2nc(C)c(C(=O)O)n2Cc2cc(Cl)ccc2Cl)n1 [Compound A13] | 
≥ 6.70 | Cc1nc(-c2cncc(Oc3ccccc3)n2)n(Cc2cc(Cl)ccc2Cl)c1C(=O)O [Compound A6, 1-(2,5-dichlorobenzyl)-4-methyl-2-(6-phenoxypyrazin-2-yl)-1H-imidazole-5-carboxylic acid] | 
≥ 6.70 | COc1cncc(-c2nc(C)c(C(=O)O)n2Cc2cc(Cl)ccc2Cl)n1 [Compound A5, 1-(2,5-dichlorobenzyl)-2-(6-methoxypyrazin-2-yl)-4-methyl-1H-imidazole-5-carboxylic acid] | 
≥ 6.70 | CCOc1cncc(-c2nc(C)c(C(=O)O)n2Cc2cc(Cl)ccc2Cl)n1 [Compound A7, 1-(2,5-dichlorobenzyl)-2-(6-ethoxypyrazin-2-yl)-4-methyl-1H-imidazole-5-carboxylic acid] | 
≥ 6.70 | COc1cccc(F)c1Oc1cncc(-c2nc(C)c(C(=O)O)n2Cc2ccccc2)n1 [Compound A14, 1-benzyl-2-(6-(2-fluoro-6-methoxyphenoxy)pyrazin-2-yl)-4-methyl-1H-imidazole-5-carboxylic acid] | 
≥ 6.70 | Cc1cncc(-c2nc(C)c(C(=O)O)n2Cc2cc(Cl)ccc2Cl)n1 [Compound A2, 1-(2,5-dichlorobenzyl)-4-methyl-2-(6-methylpyrazin-2-yl)-1H-imidazole-5-carboxylic acid] | 
